Experimental data reported in BindingDB's records for patent US9718819 (Merck Sharp & Dohme, 2017).

Target: Gag-Pol polyprotein (Human immunodeficiency virus type 1 group M subtype B (isolate HXB2), UniProt P04585)
Experiment: HIV-1 Reverse Transcriptase Inhibitory Assay
Settings: pH 7.8; 25 °C
From the text: The heterodimeric nucleic acid substrate used in the HIV-1 RT polymerase reactions was generated by annealing the DNA primer, biotinylated pD500 (Sigma Aldrich, USA, 5′-biotin-ttg aaa tga ctg cgg tac ggc-3′), SEQ ID NO. 1 to the nucleotide RNA template t500 (derived from hepatitis C virus [HCV] sequence, IBA, Germany, 5′-GAGGUUCAGGUGGUUUCCACCGCAACACAAUCCUUCCUGGCGACCUGCGUCAACGGCGUGUGUUGGACCGUUUACCAUGGUGCUGGCUCAAAGACCUUAGCCGGCCCAAAGGGGCCAAUCACCCAGAUGUACACUAAUGUGGACCAGGACCUCGUCGGCUGGCAGGCGCCCCCCGGGGCGCGUUCCUUGACACCAUGCACCUGUGGCAGCUCAGACCUUUACUUGGUCACGAGACAUGCUGACGUCAUUCCGGUGCGCCGGCGGGGCGACAGUAGGGGGAGCCUGCUCUCCCCCAGGCCUGUCUCCUACUUGAAGGGCUCUUCGGGUGGUCCACUGCUCUGCCCUUCGGGGCACGCUGUGGGCAUCUUCCGGGCUGCCGUAUGCACCCGGGGGGUUGCGAAGGCGGUGGACUUUGUGCCCGUAGAGUCCAUGGAAACUACUAUGCGGUCUCCGGUCUUCACGGACAACUCAUCCCCCCCGGCCGUACCGCAGUCAUUUCAA-3′), SEQ ID NO 2). […] The mixture was then preincubated on an orbital shaker for 30 min at room temperature in microtiter plates (Costar 3365, Corning, USA). A polymerization reaction was initiated by the addition of RNA template/pD500 DNA primer hybrid (16.6 nM final of RNA/DNA hybrid) and dNTPs (2 μM dATP, dGTP, dCTP and 66.6 nM Ru-dUTP (Meso Scale Discovery, USA)). Plate was sealed and incubated for 5-10 min at room temperature on an orbital shaker. Plate was then incubated for 90 min at 37° C. and reactions quenched with 60 μl quenching buffer (50 mM EDTA, 0.7% BSA, 0.7% Tween-20, 0.017% sodium azide in PBS). The resulting solution was incubated at room temperature for an additional 5 min and then 50 μL was transferred to pre-blocked Avidin plates (L15AA, Meso Scale Discovery). Each well of Avidin plate was blocked for 1 h at room temperature with 100 μL 5% BSA in PBS. Blocking solution was removed by tapping vigorously on filter paper to remove all excess liquid. Reaction on pre-blocked avidin plate proceeded for 60 min at room temperature and then contents removed by tapping vigorously on filter paper to remove all excess liquid. After washing plate 3 times with 150 μL 1×PBS and blotting dry between cycles, 150 μL 1× Read Buffer T (4× Read Buffer T, Meso Scale Discovery) was added and incubated for 5 min at room temperature before counting on a Sector Imager […] (Meso Scale Discovery). Titration curves and IC50 values were calculated using a four parameter logisitc fit according to standard procedures. Briefly, % Inhibition=100×((sample raw value)−(mean value of the low control or 0% inhibition))/((mean value of wells representing 100% inhbition)−(mean value of 0% inhbition)). […]

| Structure (SMILES) | IC50 |
| --- | --- |
| N#Cc1cc(Cl)cc(Oc2c(C(F)(F)F)ncn(Cc3cc(-c4cn[nH]c4)n[nH]c3=O)c2=O)c1 [US9718819, 118] | 7 nM |
| Cc1cncc(-c2cc(Cn3cnc(C(F)(F)F)c(Oc4cc(Cl)cc(C#N)c4)c3=O)n[nH]c2=O)c1 [US9718819, 80] | 14 nM |
| Cn1[nH]c(=O)c(Cn2cnc(C(F)(F)F)c(Oc3cc(Cl)cc(C#N)c3)c2=O)cc1=O [US9718819, 127] | 434 nM |
| COc1cc(-c2cc(Cn3cnc(C(F)(F)F)c(Oc4cc(Cl)cc(C#N)c4)c3=O)n[nH]c2=O)ccn1 [US9718819, 79] | 6 nM |
